# According to article PMC6997118, “Long-acting CCK analogue NN9056 lowers food intake and body weight in obese Göttingen Minipigs” (International Journal of Obesity (2005), 2019):
# What was measured:
# porcine CCK-1 receptor [1] = molecular target: T1, porcine CCK-1 receptor (Sus scrofa, UniProt I3LFK5); assay: biochemical; details: pig CCK-1 receptor over-expressed in COS-7 cells, SPA, n = 3; read-out: Binding Mean IC50
# T1 construct: expressed in transfected cells; host or cells: COS-7
# T1 sequence (I3LFK5 1-428): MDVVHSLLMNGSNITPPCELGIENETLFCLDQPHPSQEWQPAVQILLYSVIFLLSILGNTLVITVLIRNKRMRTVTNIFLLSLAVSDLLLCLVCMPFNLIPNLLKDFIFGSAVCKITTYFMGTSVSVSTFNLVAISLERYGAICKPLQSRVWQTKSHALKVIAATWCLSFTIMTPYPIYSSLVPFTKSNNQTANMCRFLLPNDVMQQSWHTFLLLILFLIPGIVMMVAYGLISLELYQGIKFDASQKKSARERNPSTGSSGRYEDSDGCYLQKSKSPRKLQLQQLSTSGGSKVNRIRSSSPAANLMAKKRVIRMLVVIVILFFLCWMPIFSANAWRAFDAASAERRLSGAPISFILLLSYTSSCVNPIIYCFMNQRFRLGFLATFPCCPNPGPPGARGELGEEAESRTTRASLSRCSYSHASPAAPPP
# porcine CCK-1 receptor [2] = molecular target: T1, porcine CCK-1 receptor; assay: cell-based; details: pig CCK-1 receptor in COS-7 cells, IP-One, n = 3; read-out: Activation Mean EC50
# porcine CCK-2 receptor = molecular target: T2, porcine CCK-2 receptor (Sus scrofa, UniProt A0A287A2K5); assay: cell-based; details: pig CCK-2 receptor in COS-7 cells, IP-One, n = 3; highest dose tested 100 nM; read-out: Activation Mean EC50
# T2 construct: expressed in transfected cells; host or cells: COS-7
# [3] = obese humans, after 24 weeks of treatment; cited from earlier work
# [4] = set-up: method as in PMID 7084608; details: cited from earlier work
# T2 sequence (A0A287A2K5 whole entry): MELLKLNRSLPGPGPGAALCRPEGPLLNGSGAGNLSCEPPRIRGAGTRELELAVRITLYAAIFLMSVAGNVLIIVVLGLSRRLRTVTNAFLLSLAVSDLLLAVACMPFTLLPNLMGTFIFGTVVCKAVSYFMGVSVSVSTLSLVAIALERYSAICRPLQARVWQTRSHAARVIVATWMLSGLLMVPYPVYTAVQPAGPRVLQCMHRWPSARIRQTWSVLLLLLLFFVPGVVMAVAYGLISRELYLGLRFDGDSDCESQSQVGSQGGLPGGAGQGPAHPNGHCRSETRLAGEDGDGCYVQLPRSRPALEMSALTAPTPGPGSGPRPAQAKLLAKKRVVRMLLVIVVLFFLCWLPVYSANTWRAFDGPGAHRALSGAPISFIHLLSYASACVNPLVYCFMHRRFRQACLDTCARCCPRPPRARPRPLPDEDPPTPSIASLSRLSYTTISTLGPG
compound,measurement,setting,value
CSCC[C@H](NC(=O)[C@H](Cc1ccc(OS(=O)(=O)O)cc1)NC(=O)[C@@H](N)CC(=O)O)C(=O)NCC(=O)N[C@@H](Cc1c[nH]c2ccccc12)C(=O)N[C@@H](CCSC)C(=O)N[C@@H](CC(=O)O)C(=O)N[C@@H](Cc1ccccc1)C(N)=O [CCK-8],IC50,porcine CCK-1 receptor [1],199 pM
same,EC50,porcine CCK-1 receptor [2],221 pM
same,EC50,porcine CCK-2 receptor,325 pM
CC(C)N(C(=O)CN1C(=O)[C@H](NC(=O)Nc2cccc(C(=O)O)c2)C(=O)N(c2ccccc2)c2ccccc21)c1ccccc1 [GI181771X],Weight loss,[3],failed to induce weight loss
Cholecystokinin [CCK],Circulating half-life,[4],< 5 min
